In patent publication US8546603B2, “Substituted cyclopentanes having prostaglandin activity” (Allergan, Inc., priority 2007, dated 2013):
Read-outs that look alike come from different tables or passages of the source.

How the values were obtained:
TP = molecular target: T1, TP (Homo sapiens, UniProt P21731); test: TP functional assay; format: cell-based
T1 sequence (P21731 1-343): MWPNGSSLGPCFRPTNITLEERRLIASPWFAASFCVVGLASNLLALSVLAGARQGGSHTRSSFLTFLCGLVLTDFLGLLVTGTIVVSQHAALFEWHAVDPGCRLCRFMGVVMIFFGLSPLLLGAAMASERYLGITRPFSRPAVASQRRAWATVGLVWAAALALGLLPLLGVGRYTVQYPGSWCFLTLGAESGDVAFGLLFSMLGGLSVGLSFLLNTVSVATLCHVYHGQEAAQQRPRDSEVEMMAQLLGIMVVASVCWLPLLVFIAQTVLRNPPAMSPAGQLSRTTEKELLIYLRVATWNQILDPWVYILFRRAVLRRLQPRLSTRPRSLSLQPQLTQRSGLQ
From the text: (§1) U.S. patent application Ser. No. 11/553,143, filed on Oct. 26, 2006, incorporated by reference herein, describes the methods used to obtain the in vitro data in Table 1 below.

EP4 [1] = molecular target: T2, EP4 (Homo sapiens, UniProt P35408); test: EP4 binding assay
From the text: as §1

EP2 [2] = molecular target: T3, EP2 (Homo sapiens, UniProt P43116); test: EP2 binding assay
From the text: as §1

EP1 = molecular target: T4, EP1 (Homo sapiens, UniProt P34995); test: EP1 functional assay; format: cell-based
T4 sequence (P34995 1-402): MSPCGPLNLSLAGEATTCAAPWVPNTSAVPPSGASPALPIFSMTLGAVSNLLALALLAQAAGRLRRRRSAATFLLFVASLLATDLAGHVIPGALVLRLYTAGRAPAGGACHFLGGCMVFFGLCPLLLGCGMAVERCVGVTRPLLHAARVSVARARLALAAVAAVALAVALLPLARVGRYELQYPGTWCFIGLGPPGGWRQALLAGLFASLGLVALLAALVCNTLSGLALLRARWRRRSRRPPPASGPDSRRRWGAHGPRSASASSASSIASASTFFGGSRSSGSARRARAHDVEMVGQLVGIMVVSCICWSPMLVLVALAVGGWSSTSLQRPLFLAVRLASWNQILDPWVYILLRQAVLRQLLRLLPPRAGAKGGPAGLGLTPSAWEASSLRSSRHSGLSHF
From the text: as §1

EP4 [3] = molecular target: T2, EP4; test: EP4 Ca2+ signal assay; format: cell-based; conditions: for EP4 Ca2+ signal % PGE2: relative to PGE2
From the text: as §1

EP2 [4] = molecular target: T3, EP2; test: EP2 cAMP assay; format: cell-based
From the text: as §1

EP3 = molecular target: T5, EP3 (Homo sapiens, UniProt P43115); test: EP3 functional assay; format: cell-based
T5 sequence (P43115 1-390): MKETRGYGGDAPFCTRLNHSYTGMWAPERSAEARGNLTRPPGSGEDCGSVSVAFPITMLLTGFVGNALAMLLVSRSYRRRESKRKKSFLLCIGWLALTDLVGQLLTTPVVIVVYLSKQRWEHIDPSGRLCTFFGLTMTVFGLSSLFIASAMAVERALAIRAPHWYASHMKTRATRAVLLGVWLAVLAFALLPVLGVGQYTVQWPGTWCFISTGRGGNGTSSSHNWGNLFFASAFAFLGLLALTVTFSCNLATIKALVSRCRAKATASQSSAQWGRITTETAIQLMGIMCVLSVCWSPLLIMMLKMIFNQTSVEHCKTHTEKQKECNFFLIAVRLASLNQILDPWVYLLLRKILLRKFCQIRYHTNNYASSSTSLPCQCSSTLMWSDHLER
From the text: as §1

EP2 [5] = molecular target: T3, EP2; test: EP2 Ca2+ signal assay; format: cell-based; conditions: for EP2 Ca2+ signal % PGE2: relative to PGE2
From the text: as §1

T2 sequence (P35408 whole entry): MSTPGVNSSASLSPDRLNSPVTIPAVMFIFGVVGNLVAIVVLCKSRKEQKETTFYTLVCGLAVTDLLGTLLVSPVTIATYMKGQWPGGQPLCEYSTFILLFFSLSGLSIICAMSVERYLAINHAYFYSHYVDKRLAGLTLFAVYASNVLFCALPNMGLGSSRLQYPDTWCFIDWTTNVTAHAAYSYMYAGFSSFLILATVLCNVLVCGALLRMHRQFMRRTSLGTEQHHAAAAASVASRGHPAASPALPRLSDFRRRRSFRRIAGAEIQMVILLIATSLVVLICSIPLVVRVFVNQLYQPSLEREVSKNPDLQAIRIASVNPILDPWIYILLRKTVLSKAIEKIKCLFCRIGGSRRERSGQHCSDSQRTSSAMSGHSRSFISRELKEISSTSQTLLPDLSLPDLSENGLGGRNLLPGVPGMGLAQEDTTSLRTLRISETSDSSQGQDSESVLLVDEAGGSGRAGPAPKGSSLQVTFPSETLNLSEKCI
T3 sequence (P43116 whole entry): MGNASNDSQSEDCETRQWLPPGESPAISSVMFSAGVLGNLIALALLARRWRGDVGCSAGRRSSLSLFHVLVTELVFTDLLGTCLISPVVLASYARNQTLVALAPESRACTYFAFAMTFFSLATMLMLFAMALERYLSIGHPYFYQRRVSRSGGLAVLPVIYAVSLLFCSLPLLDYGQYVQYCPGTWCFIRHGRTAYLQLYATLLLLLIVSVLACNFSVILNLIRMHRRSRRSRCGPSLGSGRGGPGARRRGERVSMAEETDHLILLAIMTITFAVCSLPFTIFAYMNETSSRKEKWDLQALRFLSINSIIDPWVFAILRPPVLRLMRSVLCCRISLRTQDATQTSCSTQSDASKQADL

Row | EC50 (TP) [nM] | EC50 (EP4 [1]) [nM] | EP4 Binding % Inh (EP4 [1]) [%] | EC50 (EP2 [2]) [nM] | EP2 Binding % Inh (EP2 [2]) [%] | EC50 (EP1) [nM] | EC50 (EP4 [3]) [nM] | EP4 Ca2+ signal % PGE2 (EP4 [3]) [%] | EC50 (EP2 [4]) [nM] | EC50 (EP3) [nM] | EC50 (EP2 [5]) [nM] | EP2 Ca2+ signal % PGE2 (EP2 [5]) [%] | EP4 Binding % Inh (EP4 [1]; listed as 219309) [%] | EP2 Binding % Inh (EP2 [2]; listed as 219309) [%] | EP2 Ca2+ signal % PGE2 (EP2 [5]; listed as 219309) [%] | EP4 Binding % Inh (EP4 [1]; listed as 219310) [%] | EP2 Binding % Inh (EP2 [2]; listed as 219310) [%] | EP2 Ca2+ signal % PGE2 (EP2 [5]; listed as 219310) [%] | SMILES
1 | 3010 | 1510 | 75 | 530 | 92 | 308 | 192 | 100 | 0.7 | 11 | 28 | 100 |  |  |  |  |  |  | C[C@@H](O)CCC[C@H](O)/C=C/[C@H]1[C@H](O)CC(=O)[C@@H]1C/C=C\CCCC(=O)O [AGN-191286]
2 | 5270 | 1670 | 75 | 487 | 87 | 2760 | 193 | 102 | 0.9 | 21 | 34 | 100 |  |  |  |  |  |  | C[C@@H](O)CCC[C@H](O)/C=C/[C@H]1[C@H](O)CC(=O)[C@@H]1CCCCCCC(=O)O [AGN-191287]
3 |  | 2350 | 64 | 66 | 99 | 724 | 145 | 121 | 0.06 | 499 | 7.4 | 106 |  |  |  |  |  |  | C[C@@H](O)CCC[C@H](O)/C=C/[C@@H]1[C@@H](CCCc2ccc(C(=O)O)s2)[C@H](Cl)C[C@H]1O [AGN-217510]
4 |  | > 10000 |  | 3310 |  |  |  |  | 25 |  | 4020 |  | 9 | 68 | 63 |  |  |  | COC(/C=C/[C@@H]1[C@@H](CCCc2ccc(C(=O)O)s2)[C@H](Cl)C[C@H]1O)CCC[C@@H](C)O (stereo partly shown) [AGN-219309]
5 |  | > 10000 |  | 171 |  |  |  |  | 3 |  | 281 |  |  |  |  | 6 | 90 | 77 | COC(/C=C/[C@@H]1[C@@H](CCCc2ccc(C(=O)O)s2)[C@H](Cl)C[C@H]1O)CCC[C@@H](C)O (stereo partly shown) [AGN-219310]
6 |  | 1280 | 98 | 381 | 91 |  | 35 | 120 | 1.4 |  | 20 | 91 |  |  |  |  |  |  | C[C@H](O)CCC[C@H](O)/C=C/[C@@H]1[C@@H](CCCc2ccc(C(=O)O)s2)[C@H](Cl)C[C@H]1O [AGN-221568]
